Source: PubChem BioAssay AID1259407 (Chemical Carcinogenesis Research Information System (CCRIS), 2018)
Calls of active or inactive are those of the source. How the calls were made is not given here.

Tested on: CCRIS mutagenicity, Ames/micronucleus/aberration tests
Test: CCRIS mutagenicity studies

Measured: mutagenic call

C1COCCO1
inactive: Test System: AMES SALMONELLA TYPHIMURIUM, Strain/Indicator: TA1535, Metabolic Activation: RAT LIVER S-9, PHENOBARBITAL AND BETA-NAPHTHOFLAVONE (30%), Method: PREINCUBATION inactive; negative | Test System: AMES SALMONELLA TYPHIMURIUM, Strain/Indicator: TA1535, Metabolic Activation: RAT LIVER S-9, PHENOBARBITAL AND BETA-NAPHTHOFLAVONE, Method: GAS EXPOSURE inactive; negative | Test System: AMES SALMONELLA TYPHIMURIUM, Strain/Indicator: TA1537, Metabolic Activation: HAMSTER LIVER S-9, PHENOBARBITAL AND BETA-NAPHTHOFLAVONE (10%), Method: PREINCUBATION inactive; negative | Test System: AMES SALMONELLA TYPHIMURIUM, Strain/Indicator: TA1537, Metabolic Activation: HAMSTER LIVER S-9, PHENOBARBITAL AND BETA-NAPHTHOFLAVONE (30%), Method: PREINCUBATION inactive; negative | Test System: AMES SALMONELLA TYPHIMURIUM, Strain/Indicator: TA1537, Metabolic Activation: NONE, Method: GAS EXPOSURE inactive; negative | Test System: AMES SALMONELLA TYPHIMURIUM, Strain/Indicator: TA1537, Metabolic Activation: NONE, Method: PREINCUBATION inactive; negative | Test System: AMES SALMONELLA TYPHIMURIUM, Strain/Indicator: TA1537, Metabolic Activation: NONE, Method: STANDARD PLATE inactive; negative | Test System: AMES SALMONELLA TYPHIMURIUM, Strain/Indicator: TA1537, Metabolic Activation: RAT LIVER S-9, PHENOBARBITAL AND 5,6-BENZOFLAVONE, Method: PREINCUBATION inactive; negative | Test System: AMES SALMONELLA TYPHIMURIUM, Strain/Indicator: TA1537, Metabolic Activation: RAT LIVER S-9, PHENOBARBITAL AND 5,6-BENZOFLAVONE, Method: STANDARD PLATE inactive; negative | Test System: AMES SALMONELLA TYPHIMURIUM, Strain/Indicator: TA1537, Metabolic Activation: RAT LIVER S-9, PHENOBARBITAL AND BETA-NAPHTHOFLAVONE (10%), Method: PREINCUBATION inactive; negative | Test System: AMES SALMONELLA TYPHIMURIUM, Strain/Indicator: TA1537, Metabolic Activation: RAT LIVER S-9, PHENOBARBITAL AND BETA-NAPHTHOFLAVONE (30%), Method: PREINCUBATION inactive; negative | Test System: AMES SALMONELLA TYPHIMURIUM, Strain/Indicator: TA1537, Metabolic Activation: RAT LIVER S-9, PHENOBARBITAL AND BETA-NAPHTHOFLAVONE, Method: GAS EXPOSURE inactive; negative | Test System: E.COLI, Strain/Indicator: WP2 (PKM101), Metabolic Activation: NONE, Method: PREINCUBATION inactive; negative | Test System: E.COLI, Strain/Indicator: WP2 (PKM101), Metabolic Activation: NONE, Method: STANDARD PLATE inactive; negative | Test System: E.COLI, Strain/Indicator: WP2 (PKM101), Metabolic Activation: RAT LIVER S-9, PHENOBARBITAL AND 5,6-BENZOFLAVONE, Method: PREINCUBATION inactive; negative | Test System: E.COLI, Strain/Indicator: WP2 (PKM101), Metabolic Activation: RAT LIVER S-9, PHENOBARBITAL AND 5,6-BENZOFLAVONE, Method: STANDARD PLATE inactive; negative | Test System: E.COLI, Strain/Indicator: WP2 UVRA (PKM101), Metabolic Activation: NONE, Method: PREINCUBATION inactive; negative | Test System: E.COLI, Strain/Indicator: WP2 UVRA (PKM101), Metabolic Activation: NONE, Method: STANDARD PLATE inactive; negative | Test System: E.COLI, Strain/Indicator: WP2 UVRA (PKM101), Metabolic Activation: RAT LIVER S-9, PHENOBARBITAL AND 5,6-BENZOFLAVONE, Method: STANDARD PLATE inactive; negative | Test System: E.COLI, Strain/Indicator: WP2 UVRA(PKM101), Metabolic Activation: RAT LIVER S-9, PHENOBARBITAL AND 5,6-BENZOFLAVONE, Method: PREINCUBATION inactive; negative | Test System: E.COLI, Strain/Indicator: WP2UVRA/PKM101, Metabolic Activation: NONE, Method: GAS EXPOSURE inactive; negative | Test System: E.COLI, Strain/Indicator: WP2UVRA/PKM101, Metabolic Activation: RAT LIVER S-9, PHENOBARBITAL AND BETA-NAPHTHOFLAVONE, Method: GAS EXPOSURE inactive; negative | Test System: E.COLI, Strain/Indicator: WP2UVRA, Metabolic Activation: HAMSTER LIVER S-9, PHENOBARBITAL AND BETA-NAPHTHOFLAVONE (10%), Method: PREINCUBATION inactive; negative | Test System: E.COLI, Strain/Indicator: WP2UVRA, Metabolic Activation: HAMSTER LIVER S-9, PHENOBARBITAL AND BETA-NAPHTHOFLAVONE (30%), Method: PREINCUBATION inactive; negative | Test System: E.COLI, Strain/Indicator: WP2UVRA, Metabolic Activation: NONE, Method: GAS EXPOSURE inactive; negative | Test System: E.COLI, Strain/Indicator: WP2UVRA, Metabolic Activation: NONE, Method: PREINCUBATION inactive; negative | Test System: E.COLI, Strain/Indicator: WP2UVRA, Metabolic Activation: RAT LIVER S-9, PHENOBARBITAL AND BETA-NAPHTHOFLAVONE (10%), Method: PREINCUBATION inactive; negative | Test System: E.COLI, Strain/Indicator: WP2UVRA, Metabolic Activation: RAT LIVER S-9, PHENOBARBITAL AND BETA-NAPHTHOFLAVONE (30%), Method: PREINCUBATION inactive; negative | Test System: E.COLI, Strain/Indicator: WP2UVRA, Metabolic Activation: RAT LIVER S-9, PHENOBARBITAL AND BETA-NAPHTHOFLAVONE, Method: GAS EXPOSURE inactive; negative | Test System: MOUSE LYMPHOMA, Strain/Indicator: L5178Y (TK+/TK-), Metabolic Activation: NONE, Method: MICROTITER inactive; negative | Test System: MOUSE LYMPHOMA, Strain/Indicator: L5178Y (TK+/TK-), Metabolic Activation: NONE, Method: SUSPENSION/PLATE inactive; negative | Test System: MOUSE LYMPHOMA, Strain/Indicator: L5178Y (TK+/TK-), Metabolic Activation: RAT LIVER S-9, PHENOBARBITAL AND 5,6-BENZOFLAVONE (2 OR 5%), Method: MICROTITER inactive; negative | Test System: MOUSE LYMPHOMA, Strain/Indicator: L5178Y (TK+/TK-), Metabolic Activation: RAT, LIVER, S-9, AROCLOR 1254, Method: SUSPENSION/PLATE inactive; negative
